In paper PMC5033673 (Cancer research, 2016) one finds Kd data, which are given here for one molecule.

The target of this experiment is MutSα (MSH2/MSH6 heterodimer) (Homo sapiens, UniProt P43246+P52701). Kind of experiment: Biacore SPR. The experiment is classed as binding.
Sequence of MutSα (MSH2/MSH6 heterodimer) (P43246 2-934): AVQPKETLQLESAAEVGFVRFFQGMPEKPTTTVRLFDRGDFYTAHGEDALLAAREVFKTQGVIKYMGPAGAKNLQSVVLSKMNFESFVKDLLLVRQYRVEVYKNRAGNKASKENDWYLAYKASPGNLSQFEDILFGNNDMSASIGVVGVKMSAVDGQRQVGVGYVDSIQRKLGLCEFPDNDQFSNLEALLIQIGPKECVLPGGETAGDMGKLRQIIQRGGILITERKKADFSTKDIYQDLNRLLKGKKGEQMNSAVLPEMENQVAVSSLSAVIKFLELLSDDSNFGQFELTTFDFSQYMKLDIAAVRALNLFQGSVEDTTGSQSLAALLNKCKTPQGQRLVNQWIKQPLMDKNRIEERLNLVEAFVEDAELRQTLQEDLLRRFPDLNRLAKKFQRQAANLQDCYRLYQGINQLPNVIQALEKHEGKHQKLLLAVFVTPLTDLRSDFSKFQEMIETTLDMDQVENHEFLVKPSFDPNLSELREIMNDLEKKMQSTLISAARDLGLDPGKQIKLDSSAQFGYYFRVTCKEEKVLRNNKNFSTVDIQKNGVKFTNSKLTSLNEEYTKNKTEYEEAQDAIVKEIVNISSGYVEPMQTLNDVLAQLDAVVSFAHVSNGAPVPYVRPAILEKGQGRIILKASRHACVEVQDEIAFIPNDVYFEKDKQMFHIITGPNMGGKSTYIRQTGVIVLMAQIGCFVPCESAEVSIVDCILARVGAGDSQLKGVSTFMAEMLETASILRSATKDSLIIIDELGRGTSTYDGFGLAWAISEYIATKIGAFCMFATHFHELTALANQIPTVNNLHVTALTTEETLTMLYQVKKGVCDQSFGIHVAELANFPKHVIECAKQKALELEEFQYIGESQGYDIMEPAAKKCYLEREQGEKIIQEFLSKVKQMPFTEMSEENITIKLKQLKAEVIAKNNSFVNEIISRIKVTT
Sequence of MutSα (MSH2/MSH6 heterodimer) (P52701 whole entry): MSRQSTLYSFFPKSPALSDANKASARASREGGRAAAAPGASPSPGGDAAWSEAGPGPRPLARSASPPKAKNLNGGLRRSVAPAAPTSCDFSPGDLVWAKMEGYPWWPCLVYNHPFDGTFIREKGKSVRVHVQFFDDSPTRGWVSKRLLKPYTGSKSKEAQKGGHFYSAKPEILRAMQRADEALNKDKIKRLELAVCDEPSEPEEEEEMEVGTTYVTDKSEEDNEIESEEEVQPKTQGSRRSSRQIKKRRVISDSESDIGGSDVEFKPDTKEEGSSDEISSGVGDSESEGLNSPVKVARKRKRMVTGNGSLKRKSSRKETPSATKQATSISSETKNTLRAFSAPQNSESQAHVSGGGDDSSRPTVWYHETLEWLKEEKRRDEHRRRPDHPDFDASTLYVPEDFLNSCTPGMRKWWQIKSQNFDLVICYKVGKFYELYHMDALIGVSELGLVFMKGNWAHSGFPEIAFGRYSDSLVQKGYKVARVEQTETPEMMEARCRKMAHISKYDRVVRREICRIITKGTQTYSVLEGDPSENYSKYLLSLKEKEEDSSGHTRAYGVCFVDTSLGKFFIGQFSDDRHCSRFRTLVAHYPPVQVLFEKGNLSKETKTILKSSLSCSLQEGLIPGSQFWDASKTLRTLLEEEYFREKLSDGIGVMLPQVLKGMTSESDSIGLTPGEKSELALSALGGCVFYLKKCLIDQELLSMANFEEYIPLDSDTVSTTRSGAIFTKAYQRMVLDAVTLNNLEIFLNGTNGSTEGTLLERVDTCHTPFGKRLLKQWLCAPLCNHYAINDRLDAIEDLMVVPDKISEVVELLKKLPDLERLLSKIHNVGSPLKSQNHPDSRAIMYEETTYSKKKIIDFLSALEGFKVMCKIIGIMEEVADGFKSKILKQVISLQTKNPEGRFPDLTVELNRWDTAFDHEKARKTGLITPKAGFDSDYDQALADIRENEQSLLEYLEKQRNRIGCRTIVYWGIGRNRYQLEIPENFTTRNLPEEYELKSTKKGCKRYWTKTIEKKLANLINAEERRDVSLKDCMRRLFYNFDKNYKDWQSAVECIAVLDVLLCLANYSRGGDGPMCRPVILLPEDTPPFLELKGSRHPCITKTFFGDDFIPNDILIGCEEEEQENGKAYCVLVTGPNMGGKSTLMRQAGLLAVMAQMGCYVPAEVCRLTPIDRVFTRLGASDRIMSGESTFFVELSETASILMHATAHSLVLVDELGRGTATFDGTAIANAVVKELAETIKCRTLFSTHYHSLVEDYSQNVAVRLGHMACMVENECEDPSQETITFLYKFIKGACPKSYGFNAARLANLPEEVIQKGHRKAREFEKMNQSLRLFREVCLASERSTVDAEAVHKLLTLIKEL

For `O=c1cc(-c2ccccc2)oc2cc(O)c(O)c(O)c12` [baicalein, 5,6,7-trihydroxyflavone], the Kd (commonly a measure of binding affinity in units of concentration) was ~32.2 µM.
